Measured values taken from patent US12502386B2, “Nitrogen-containing heterocyclic compound and use thereof” (SHANGHAI SHIJIANG BIOTECHNOLOGY CO., LTD, priority 2022, dated 2025).

Columns and labels:
SW48 = assay: CellTiter-Glo cell viability, tumor cell line SW48; format: cell-based; conditions: SW48, 72 h; human colon adenocarcinoma cell; 3 days of culture; read-out: inhibitory effect on SW48 (IC50)
Experimental: (§1) Cell viability was detected using the Promega CellTiter-Glo kit, cell viability was determined by directly measuring intracellular ATP content. In the experiment, the IC50 value of the compounds prepared in the Examples of the present invention on various tumor cell lines was detected.
(§2) Each tumor cell was cultured in relevant medium. After cell passage, the gradient diluted compounds prepared in the Examples of the present invention was added. After 3 days of culture, the relevant IC50 (50% inhibiting concentration) was measured. The name, source and culture conditions of each tumor cell line were as follows:
Cell line SW48 (ATCC, No. CCL-231) was cultured in 10% fetal bovine serum-containing Leibovitz's L-15 medium (+P/S).

NB-1 = assay: CellTiter-Glo cell viability, brain tumor cell line NB-1; format: cell-based; conditions: Homo sapiens, NB1, 72 h; brain neuroblastoma cell; 3 days of culture; read-out: inhibitory effect on NB-1 (IC50)
Experimental: (§3) Cell viability was detected using the Promega CellTiter-Glo kit, cell viability was determined by directly measuring intracellular ATP content. In the experiment, the IC50 value of the compounds prepared in the Examples of the present invention on various brain tumor cell lines was detected.
as §2, with “follows: […]” for “follows:”

GB-1 = assay: CellTiter-Glo cell viability, tumor cell line GB-1; format: cell-based; conditions: GB-1, 72 h; human brain glioblastoma cell; 3 days of culture; read-out: inhibitory effect on GB-1 (IC50)
Experimental: as §1, §2
Cell line GB-1 (JCRB, No. IFO50489) was cultured in 10% fetal bovine serum-containing DMEM medium (+P/S).
as §3

CFPAC-1 = assay: CellTiter-Glo cell viability, tumor cell line CFPAC-1; format: cell-based; conditions: CFPAC-1, 72 h; human pancreatic cancer cell; 3 days of culture; read-out: inhibitory effect on CFPAC-1 (IC50)
Experimental: as §1, §2
Cell line CFPAC-1 (ATCC, No. CRL-1918) was cultured in 10% fetal bovine serum-containing IMDM medium (+P/S).

ov-NNMT NCI-H82 cell = assay: CellTiter-Glo cell viability, ov-NNMT NCI-H82 cell (NNMT overexpressed); format: cell-based, human; conditions: Homo sapiens, NCI-H82, NCI-H82 overexpressing NNMT protein, intracellular ATP, read-out: inhibitory effect on OV-NNMT NCI-H82 (IC50)
NCI-H82 = assay: CellTiter-Glo cell viability, tumor cell line NCI-H82; format: cell-based; conditions: NCI-H82, 72 h; human small cell lung cancer cell; 3 days of culture; read-out: inhibitory effect on NCI-H82 (IC50)
Experimental: as §1, §2
Cell line NCI-H82 (ATCC, No. HTB-175) was cultured in 10% fetal bovine serum-containing RPMI1640 medium (+P/S).

786-O = assay: CellTiter-Glo cell viability, tumor cell line 786-O; format: cell-based; conditions: Homo sapiens, 786-0, 72 h; clear cell renal cell adenocarcinoma cell; 3 days of culture; read-out: inhibitory effect on 786-O (IC50)
Experimental: as §1, §2
Cell line 786-0 (ATCC, No. CRL-1932) was cultured in 10% fetal bovine serum-containing RPMI164B medium (+P/S).

D341 Med = assay: CellTiter-Glo cell viability, brain tumor cell line D341 Med; format: cell-based; conditions: Homo sapiens, 72 h, cerebellar medulloblastoma cell, 3 days of culture, read-out: inhibitory effect on D341 Med (IC50)
Experimental: as §3, §2
Cell line D341 Med (ATCC, No. HTB-187) was cultured in 20% fetal bovine serum-containing EMEM medium (+P/S).

Kelly = assay: CellTiter-Glo cell viability, brain tumor cell line Kelly; format: cell-based; conditions: Homo sapiens, 72 h, brain neuroblastoma cell, 3 days of culture, read-out: inhibitory effect on Kelly (IC50)
Experimental: as §3, §2
Cell line Kelly (ECACC, No. 92110411) was cultured in 10% fetal bovine serum and 2 mM glutamine-containing RPMI1640 medium.

SF-126 = assay: CellTiter-Glo cell viability, tumor cell line SF-126; format: cell-based; conditions: SF-126, 72 h, read-out: inhibitory effect on SF-126 (IC50); human glioblastoma multiforme cell; 3 days of culture
Experimental: as §1, §2
Cell line SF126 (JCRB, No. IFO50286) was cultured in 10% fetal bovine serum-containing EMEM medium (+P/S).
as §3

Con-NCI-H82 cell = assay: CellTiter-Glo cell viability, Con-NCI-H82 cell (empty-vector control); format: cell-based, human; conditions: Homo sapiens, NCI-H82, NCI-H82 transfected with empty virus vector (control), intracellular ATP, read-out: inhibitory effect on Con-NCI-H82 (IC50)
sh-DNMT1 NCI-H82 cell = assay: CellTiter-Glo cell viability, sh-DNMT1 NCI-H82 cell (DNMT1 knocked down); format: cell-based, human; conditions: Homo sapiens, NCI-H82, NCI-H82 with DNMT1 knocked down by shRNA, intracellular ATP, read-out: inhibitory effect on sh-DNMT1 NCI-H82 (IC50)
MDA-MB-453 = assay: CellTiter-Glo cell viability, tumor cell line MDA-MB-453; format: cell-based; conditions: Homo sapiens, MDA-MB-453, 72 h; breast cancer cell; 3 days of culture; read-out: inhibitory effect on MDA-MB-453 (IC50)
Experimental: as §1
as §2, with “follows: […]” for “follows:”

G-401 = assay: CellTiter-Glo cell viability, tumor cell line G-401; format: cell-based; conditions: G-401, 72 h; human renal carcinoma Wilms cell; 3 days of culture; read-out: inhibitory effect on G-401 (IC50)
Experimental: as §1, §2
Cell line G-401 (ATCC, No. CRL-1441) was cultured in 10% fetal bovine serum-containing McCoy's 5a medium (+P/S).

SMILES | IC50 (SW48) | IC50 (NB-1) | IC50 (GB-1) | IC50 (CFPAC-1) | IC50 (ov-NNMT NCI-H82 cell) | IC50 (NCI-H82) | IC50 (786-O) | IC50 (D341 Med) | IC50 (Kelly) | IC50 (SF-126) | IC50 (Con-NCI-H82 cell) | IC50 (sh-DNMT1 NCI-H82 cell) | IC50 (MDA-MB-453) | IC50 (G-401)
CCCOc1c(OC)ccc2c1C(C1CCCC1)N1CCc3cc4c(cc3C1=C2)OCO4 (centres unmarked) [AB35512] | 2020 nM | 1560 nM | 23500 nM | 17300 nM | 2420 nM | 620 nM | 15400 nM | 2010 nM | 4230 nM | 18100 nM | 620 nM | 2320 nM | 1560 nM | 1330 nM
COc1ccc2c(c1OCCCc1ccccc1)C(C(Cl)(Cl)Cl)N1CCc3cc4c(cc3C1=C2)OCO4 (centres unmarked) [AB35525] | 2340 nM | 1880 nM | > 30000 nM | 16200 nM | 2020 nM | 510 nM | 14000 nM | 960 nM | 3120 nM | 19800 nM | 510 nM | 3150 nM | 1680 nM | 980 nM
C=CCOc1c(OC)ccc2c1C(C(Cl)(Cl)Cl)N1CCc3cc4c(cc3C1=C2)OCO4 (centres unmarked) [AB35534] | 2450 nM | 1580 nM | 20200 nM | 16900 nM | 3960 nM | 1320 nM | 14300 nM | 3120 nM | 2090 nM | 19000 nM | 1320 nM | 3840 nM | 1880 nM | 2030 nM
CCCOc1c(OC)ccc2c1CN1CCc3cc4c(cc3C1=C2)OCO4 [AB35536] | 1270 nM | 3110 nM | 16500 nM | 9960 nM | 2240 nM | 520 nM | 15500 nM | 1060 nM | 2560 nM | 23400 nM | 520 nM | 2560 nM | 940 nM | 1390 nM
COc1ccc2c(c1OCCCCl)CN1CCc3cc4c(cc3C1=C2)OCO4 [AB35543] | 1560 nM | 2360 nM | 13400 nM | 10200 nM | 2680 nM | 550 nM | 9880 nM | 1680 nM | 1540 nM | 15900 nM | 550 nM | 3120 nM | 880 nM | 1060 nM
COc1ccc2c(c1OCCCF)CN1CCc3cc4c(cc3C1=C2)OCO4 [AB35590] | 2150 nM | 1990 nM | 22500 nM | 15300 nM | 4680 nM | 1520 nM | 13900 nM | 2780 nM | 3160 nM | 17700 nM | 1520 nM | 4040 nM | 1980 nM | 2660 nM
C1=C2c3cc4c(cc3CCN2C(C2CCCC2)c2c1ccc1c2OCO1)OCO4 (centres unmarked) [AB36423] | 2540 nM | 2980 nM | 16100 nM | 14300 nM | 5110 nM | 1850 nM | 22300 nM | 1550 nM | 3120 nM | > 30000 nM | 1850 nM | 4980 nM | 1660 nM | 2320 nM
[2H]C1c2c(ccc(OC)c2OCCC)C=C2c3cc4c(cc3CCN21)OCO4 (centres unmarked) [AB36437] | 2550 nM | 2580 nM | 19900 nM | 14400 nM | 2730 nM | 650 nM | 20200 nM | 2120 nM | 1890 nM | 16800 nM | 650 nM | 3120 nM | 1340 nM | 980 nM
COc1ccc2c(c1OC)C(C1CCC1)N1CCc3cc4c(cc3C1=C2)OCO4 (centres unmarked) [AB36447] | 1960 nM | 2040 nM | 24600 nM | 20100 nM | 4980 nM | 2020 nM | > 30000 nM | 2750 nM | 1980 nM | > 30000 nM | 2020 nM | 7120 nM | 2120 nM | 2680 nM
[2H]C([2H])([2H])Oc1c(OC)ccc2c1C(C1CCCC1)N1CCc3cc4c(cc3C1=C2)OCO4 (centres unmarked) [AB36501] | 1160 nM | 2060 nM | 13300 nM | 9880 nM | 4330 nM | 970 nM | 13100 nM | 760 nM | 1380 nM | 15400 nM | 970 nM | 5120 nM | 1320 nM | 880 nM
